Assay results taken from patent US11911386B2, “Methods of treating B-cell proliferative disorder” (BeiGene Switzerland GmbH, priority 2022, dated 2024).
“And” between values parts separate entries of the source, which are not always exact repeats. Equal values may be shown once. Read-outs that look alike come from different tables or passages of the source. Marks after values point to notes of the source that are not given here.

Key:
[1] = tested on: relapsed/refractory CLL/SLL; conditions: for Duration of response events: death / Duration of response events: progressive disease / Duration of response: events: responders
[2] = cited from earlier work
[3] = cited from earlier work; remark: listed apart in the source
panel of 370 kinases = assay: Kinome profiling at 100xIC50 (BTK) concentrations; type: biochemical; conditions: 100×IC50 (BTK) concentration
[4] = Phase 1 DDI study: treatment-emergent adverse events; type: in vivo, human
Protocol: Safety was assessed by monitoring and recording of adverse events (AEs), serious adverse events (SAEs), clinical laboratory tests, physical examinations, and vital signs. […] A TEAE was defined as an AE that started during or after the first dose or started before the first dose and increased in severity after the first dose. AEs were classified based on MedDRA Version 24.0.
Safety and tolerability were assessed, when applicable, by incidence, severity, change from baseline values, and abnormal values for all relevant parameters such as AEs, laboratory parameters, vital signs, and physical examination.

[5] = IRC assessed, ITT, Table 15 data cut-off
[6] = IRC assessed, ITT, final analysis
[7] = IRC assessed, del(17p)/TP53 mutation, final analysis
[8] = investigator assessed, ITT, Table 15 data cut-off
[9] = investigator assessed, ITT, final analysis
[10] = investigator assessed, del(17p)/TP53 mutation, final analysis
[11] = coadministration with itraconazole

C=CC(=O)N1CCC([C@@H]2CCNc3c(C(N)=O)c(-c4ccc(Oc5ccccc5)cc4)nn32)CC1 [zanubrutinib, (S)-7-(1-acryloylpiperidin-4-yl)-2-(4-phenoxyphenyl)-4,5,6,7-tetrahydropyrazolo[1,5-a]pyrimidine-3-carboxamide]
24-month event-free rate, duration of response (95% CI) ([1]; IRC assessed): 77.4 (71.0-82.5) %
Median duration of response (95% CI) ([1]; IRC assessed): had not yet been reached
Best response CR or CRi [1, 5]: 13 (4.0) n (%)
Best response PD [1, 5]: 3 (0.9) n (%)
Best response PR or nPR [1, 5]: 250 (76.5) n (%)
Best response PR-L [1, 5]: 33 (10.1) n (%)
Best response SD [1, 5]: 20 (6.1) n (%)
Discontinue prior to first assessment, NA or NE [1, 5]: 8 (2.4) n (%)
ORR (95% CI) [1, 5]: 80.4† (75.7, 84.6) %
Best response CR or CRi [1, 6]: 22 (6.7) n (%)
Best response PD [1, 6]: 3 (0.9) n (%)
Best response PR or nPR [1, 6]: 260 (79.5) n (%)
Best response PR-L [1, 6]: 18 (5.5) n (%)
Best response SD [1, 6]: 16 (4.9) n (%)
Discontinue prior to first assessment, NA or NE [1, 6]: 8 (2.4) n (%)
ORR [1, 6]: 86.2%
Best response CR or CRi [1, 7]: 6 (8.0) n (%)
Best response PD [1, 7]: 1 (1.3) n (%)
Best response PR or nPR [1, 7]: 58 (77.3) n (%)
Best response PR-L [1, 7]: 4 (5.3) n (%)
Best response SD [1, 7]: 3 (4.0) n (%)
Discontinue prior to first assessment, NA or NE [1, 7]: 3 (4.0) n (%)
ORR [1, 7]: 85.3%
Median duration of response (95% CI) ([1]; IRC assessed, listed as Zanubrutinib): NE (31.3, NE)
Duration of response events: death ([1]; IRC assessed): 20 (7.1) n (%)
Duration of response events: progressive disease ([1]; IRC assessed): 40 (14.2) n (%)
Duration of response: events ([1]; IRC assessed): 60 (21.3) n (%)
Treatment discontinuation due to progressive disease ([1]; ITT): 7.3%
PFS HR (95% CI), zanubrutinib over ibrutinib ([1]; accounting for drug interruption (ITT), independent review): 0.71 (0.53, 0.95)
PFS HR (95% CI), zanubrutinib over ibrutinib ([1]; accounting for drug interruption (ITT), investigator assessment): 0.71 (0.52, 0.96)
PFS HR (95% CI), zanubrutinib over ibrutinib ([1]; alternative censoring rules (ITT), independent review): 0.63 (0.48, 0.84)
PFS HR (95% CI), zanubrutinib over ibrutinib ([1]; alternative censoring rules (ITT), investigator assessment): 0.65 (0.49, 0.87)
Deaths ([1]; final analysis data cut-off): 48 n
PFS HR (95% CI), zanubrutinib over ibrutinib ([1]; in vivo): 0.62 (0.46, 0.84) and 0.62 (0.45, 0.84)
Treatment-failure event-free rate at 24 months ([1]; in vivo): 79.9%
24-month event-free rate, duration of response (95% CI) ([1]; investigator assessed): 79.5 (73.1-84.6) %
Median PFS ([1]; investigator assessed): not reached
Median duration of response (95% CI) ([1]; investigator assessed): had not yet been reached
PFS rate at 24 months ([1]; investigator assessed): 78.4%
Patients with disease progression or death ([1]; investigator assessed): 87 patients
Rate of partial response with lymphocytosis or better ([1]; investigator assessed, ITT): 89.9%
Best response CR or CRi [1, 8]: 16 (4.9) n (%)
Best response PD [1, 8]: 1 (0.3) n (%)
Best response PR or nPR [1, 8]: 244 (74.6) n (%)
Best response PR-L [1, 8]: 32 (9.8) n (%)
Best response SD [1, 8]: 25 (7.6) n (%)
Discontinue prior to first assessment, NA or NE [1, 8]: 9 (2.8) n (%)
ORR (95% CI) [1, 8]: 79.5* (74.7, 83.8) %
Best response CR or CRi [1, 9]: 23 (7.0) n (%)
Best response PD [1, 9]: 1 (0.3) n (%)
Best response PR or nPR [1, 9]: 250 (76.5) n (%)
Best response PR-L [1, 9]: 21 (6.4) n (%)
Best response SD [1, 9]: 23 (7.0) n (%)
Discontinue prior to first assessment, NA or NE [1, 9]: 9 (2.8) n (%)
ORR [1, 9]: 83.5%
Best response CR or CRi [1, 10]: 5 (6.7) n (%)
Best response PD [1, 10]: 0 n (%)
Best response PR or nPR [1, 10]: 56 (74.7) n (%)
Best response PR-L [1, 10]: 6 (8.0) n (%)
Best response SD [1, 10]: 5 (6.7) n (%)
Discontinue prior to first assessment, NA or NE [1, 10]: 3 (4.0) n (%)
ORR [1, 10]: 81.3%
Median duration of response (95% CI) ([1]; investigator assessed, listed as Zanubrutinib): NE (31.3, NE)
Duration of response events: death ([1]; investigator assessed): 20 (7.3) n (%)
Duration of response events: progressive disease ([1]; investigator assessed): 33 (12.1) n (%)
Duration of response: events ([1]; investigator assessed): 53 (19.4) n (%)
PD detected by decrease in platelet count ([1]; investigator assessment, ITT): 0
PD detected by increase in lymph nodes ([1]; investigator assessment, ITT): 40 (12.2)
PD detected by new enlarged lymph nodes ([1]; investigator assessment, ITT): 3 (0.9)
PD detected by new or increase in splenomegaly ([1]; investigator assessment, ITT): 8 (2.4)
PD detected by new symptomatic disease ([1]; investigator assessment, ITT): 3 (0.9)
Patients with disease transformation ([1]; investigator assessment, ITT): 5 (1.5)
Patients with progressive disease ([1]; investigator assessment, ITT): 54 (16.5)
PFS HR (95% CI), zanubrutinib over ibrutinib ([1]; per protocol population (N = 646), independent review): 0.64 (0.48, 0.85)
PFS HR (95% CI), zanubrutinib over ibrutinib ([1]; per protocol population (N = 646), investigator assessment): 0.64 (0.48, 0.85)
Increase in zanubrutinib AUC0-∞ [2, 11]: 3.8 fold
Increase in zanubrutinib Cmax [2, 11]: 2.6 fold
Decrease in zanubrutinib AUC0-∞ ([2]; coadministration with rifampin): 13.5 fold
Decrease in zanubrutinib Cmax ([2]; coadministration with rifampin): 12.6 fold
Exposure change ([2]; coadministration with rifampin): 13 fold
Median Tmax ([3]; oral administration): 2 h
Mean terminal elimination half-life (t1/2) ([3]; patients with B-cell malignancies): 2 to 4 h
Mean t1/2 ([3]; previous clinical DDI study in healthy volunteers): 6.8 h
Off-target kinases inhibited (panel of 370 kinases): seven
General disorders and administration site conditions TEAE ([4]; N = 13): 1 (7.7) n (%)
Overall TEAEs ([4]; N = 13): 1 (7.7) n (%)
Vessel puncture site hematoma TEAE ([4]; N = 13): 1 (7.7) n (%)
Tolerability ([4]; single 320 mg dose alone or with 300 mg rifabutin, healthy volunteers): well tolerated
